The values that follow come from patent US9511064B2, “Combination therapy for the treatment of cancer and immunosuppression” (Basilea Pharmaceutica AG, priority 2012, dated 2016).

Read-outs that look alike come from different tables or passages of the source.

Common to all, as to type: cell-based
Experiment [1] relates to HL60 tumor cells and the mouse mast cell line 6.5. Kind of experiment: AlamarBlue conversion cell proliferation assay, general statements without cell line. Conditions: metformin alone at 4 mM.
For experiment [2], the system named is mouse mast cell line 6.5. Kind of experiment: AlamarBlue conversion cell proliferation assay, 6.5 cell line. On the procedure: (§1) The in vitro anti-proliferative activity of compounds of formula (I), metformin and combinations thereof is tested in an AlamarBlue conversion cell proliferation assay (Promega) on HL60 tumor cells and the mouse mast cell line 6.5 (Colombi et al., Oncogene 2011, 30:1551-65). Cells are seeded into 96-well microtiter plates (seeding cell density is 7,000 cells per well in 150 uL Iscove's medium) and test compounds are added (compounds of formula (I) are added from a 10 mM stock solution in DMSO, metformin from a freshly prepared 1 M solution in culture medium). Plates are incubated for 3 days at 37°, 5% CO2 and proliferation is determined by AlamarBlue staining (0.1 vol % added to cultures and incubated for further 4-5 hours). The conversion of AlamarBlue is proportional to live cell number and is read with a fluorescence plate reader (Ex/Em 535/595 nm). Growth is normalized to the untreated controls.
(The colour change of resazurin is a common sign of viable cells or microbes.)

For experiment [3], the system named is HL60 tumor cells. Kind of experiment: AlamarBlue conversion cell proliferation assay, HL60 cell line. The procedure: as §1
Setting [4] is: combined with 4 mM metformin, 3 days incubation, read-out: concentration that inhibits the proliferation of cells by approximately 50% when combined with 4 mM metformin, 6.5 cell line.
Where [5] appears, read: combined with 4 mM metformin, 3 days incubation, read-out: concentration that inhibits the proliferation of cells by approximately 50% when combined with 4 mM metformin, HL60 cell line.

On to `CN(C)C(=N)NC(=N)N` [Metformin, 3-(diaminomethylidene)-1,1-dimethylguanidine], for which the “anti-proliferative activity on its own” value in experiment [1] is reported as “do not show significant anti-proliferative activity”.
Turning to `CCOC(=O)Oc1c(OC)cc(C(=O)O[C@@H]2C[C@@H]3CN4CCc5c([nH]c6cc(OC(C)=O)ccc56)[C@H]4C[C@@H]3[C@H](C(=O)OC)[C@H]2OC)cc1OC` [Example 14, methyl (1R,15S,17R,18R,19S,20S)-6-(acetyloxy)-17-({4-[(ethoxycarbonyl)oxy]-3,5-dimethoxyphenyl}carbonyloxy)-18-methoxy-3,13-diazapentacyclo[11.8.0.0^2,10.0^4,9.0^15,20]henicosa-2(10),4,6,8-tetraene-19-carboxylate], the IC50 came out at 1.5 µM in experiment [2] (setting [4]) and 2 µM in experiment [3] (setting [5]).
As for `COC(=O)[C@H]1[C@H]2C[C@@H]3c4[nH]c5cc(OC)ccc5c4CCN3C[C@H]2C[C@@H](OC(=O)c2cc(OC)c(OC(=O)OCc3ccncc3)c(OC)c2)[C@@H]1OC` [Example 6, methyl (1R,15S,17R,18R,19S,20S)-17-[(3,5-dimethoxy-4-{[(pyridin-4-ylmethoxy)carbonyl]oxy}phenyl)carbonyloxy]-6,18-dimethoxy-3,13-diazapentacyclo[11.8.0.0^2,10.0^4,9.0^15,20]henicosa-2(10),4,6,8-tetraene-19-carboxylate], the IC50 came to 2.5 µM in experiment [2] (read-out: concentration that inhibits the proliferation of cells by approximately 50% when combined with 4 mM metformin, 6.5 cell line, 3 days incubation) and 2.5 µM in experiment [3] (read-out: concentration that inhibits the proliferation of cells by approximately 50% when combined with 4 mM metformin, HL60 cell line, 3 days incubation).
Regarding `COC(=O)[C@H]1[C@H]2C[C@@H]3c4[nH]c5cc(OC)ccc5c4CCN3C[C@H]2C[C@@H](OC(=O)c2cc(OC)c(OC(=O)OCc3ccc(C(F)(F)F)cc3)c(OC)c2)[C@@H]1OC` [Example 38], the IC50 in experiment [2] (setting [4]) and in experiment [3] (setting [5]) was 4 µM each time.
As for `COC(=O)[C@H]1[C@H]2C[C@@H]3c4[nH]c5cc(OC)ccc5c4CCN3C[C@H]2C[C@@H](OC(=O)c2cc(OC)c(OC(=O)OCc3cccc(Cl)c3)c(OC)c2)[C@@H]1OC` [Example 35], the IC50 in experiment [2] (setting [4]) and in experiment [3] (setting [5]) was 2 µM each time.
